Experiments:
Myzus persicae [1] = assay: Myzus persicae (green peach aphid) sunflower leaf disc spray test; settings: foliar, 144 h, read-out: control of Myzus persicae
Tetranychus urticae = Tetranychus urticae (two-spotted spider mite) bean leaf disc spray test; settings: foliar, 192 h, read-out: control of Tetranychus urticae
Myzus persicae [2] = assay: Myzus persicae (green peach aphid) pea seedling root uptake test; settings: 144 h, read-out: control of Myzus persicae

Cc1ccccc1CC(=O)OCCNC(=S)NC1CCc2c(F)cccc21 (stereo not drawn) [Compound 11.060]
≥ 80%: pest or weed control at 200 ppm (Myzus persicae [1]) | pest or weed control at 200 ppm (Tetranychus urticae) | pest or weed control at 24 ppm (Myzus persicae [2])

O=C(Cc1ccccc1F)OCCNC(=S)NC1CCc2c(F)cccc21 (stereo not drawn) [Compound 11.062]
≥ 80%: pest or weed control at 200 ppm (Myzus persicae [1]) | pest or weed control at 200 ppm (Tetranychus urticae) | pest or weed control at 24 ppm (Myzus persicae [2])

O=C(Cc1ccc(F)cc1)OCCNC(=S)NC1CCc2c(F)cccc21 (stereo not drawn) [Compound 11.063]
≥ 80%: pest or weed control at 200 ppm (Myzus persicae [1]) | pest or weed control at 200 ppm (Tetranychus urticae) | pest or weed control at 24 ppm (Myzus persicae [2])

O=C(Cc1cccc(C(F)(F)F)c1)OCCNC(=S)NC1CCc2c(F)cccc21 (stereo not drawn) [Compound 11.065]
≥ 80%: pest or weed control at 200 ppm (Myzus persicae [1]) | pest or weed control at 200 ppm (Tetranychus urticae) | pest or weed control at 24 ppm (Myzus persicae [2])

Cc1c(C(=O)OCCNC(=S)NC2CCc3c(F)cccc32)ncn1C(C)(C)C (stereo not drawn) [Compound 11.070]
≥ 80%: pest or weed control at 200 ppm (Myzus persicae [1]) | pest or weed control at 200 ppm (Tetranychus urticae) | pest or weed control at 24 ppm (Myzus persicae [2])
